# In PubChem BioAssay AID1996:
# Conditions: buffer; pH 7.4; 200.0 µM
row,SMILES,solubility kinetic [µg/mL]
1,Cc1noc(C)c1COC(=O)/C=C/c1ccc(Cl)cc1,6.4
2,COc1ccc2[nH]c(C(=O)O)c(NC(=O)c3ccccc3[N+](=O)[O-])c2c1,> 53.3
3,Cc1cccc(OCc2nnc(SC(C)C(=O)Nc3ccc(N4CCOCC4)cc3)o2)c1 (centres undefined),> 68.2
4,Cc1cc(Nc2ccc(F)c(F)c2)nc(-c2ccccc2O)n1,< 0.2
5,O=C(COC(=O)c1ccc([N+](=O)[O-])cc1)Nc1ccccc1C(=O)NC1CC1,8.5
6,Cc1ccccc1NC(=O)NCc1cccnc1,> 36.2
7,N#Cc1ccc(C(=O)N(Cc2ccccc2)c2ccccc2)cc1,26.4
8,CC1CCC(NC(=S)NCCN(C)C)CC1 (centres undefined),25.6
9,O=c1c(/C=N/O)coc2ccc(Cl)cc12,8.2
10,Cc1ccc2nc(-c3ccncc3)cc(C(=O)NCc3ccccc3F)c2c1,2.5
11,O=C(N/N=C/c1ccoc1)c1ccccc1F,> 34.8
12,CC(C)[C@H](NC(=O)N1CCC(Cc2ccccc2)CC1)C(=O)O,> 47.8
13,O=C(OCC(=O)N1CCN(S(=O)(=O)c2ccccc2)CC1)C1CCC1,54
14,O=C(NCC1CCCO1)c1ccc(COc2ccccc2)cc1 (centres undefined),> 46.7
15,CN1CCCN(C(=O)c2ccccc2Cl)CC1,> 37.9
16,Cc1cccc(C(=O)OCC(=O)N2CC(C)CC(C)C2)c1C (centres undefined),> 45.5
17,CC(=O)c1ccc(NC(=O)N2C[C@H]3C[C@@H](C2)c2cccc(=O)n2C3)cc1,> 52.7
18,Cc1cccc(NCc2ccc(O)c3ncccc23)c1C,> 41.8
19,O=C(O)C1CC=CCC1C(=O)NCCCN1CCCC1=O (centres undefined),> 44.2
20,O=C(COc1ccc(Cl)cc1)NC1CC1,> 33.9
21,CC(=O)Nc1cccc(C(=O)OCCCOc2ccc(F)cc2)c1,2.6
22,C=CCn1c(Oc2cccc(C)c2)nc2c1c(=O)n(C)c(=O)n2C,> 49
23,O=C1C2C3C=CC(C4CC34)C2C(=O)N1c1cccc2ccccc12 (centres undefined),42.7
24,CC1(C)Cc2ccccc2C(C(Cc2ccccc2)C(N)=O)=N1 (centres undefined),41.8

row,SMILES,solubility kinetic [µg/mL]
1,CCc1c(C)nc(N2CCN(c3cccc(OC)c3)CC2)[nH]c1=O,15.8
2,COc1ccc(CN2CCCN(C)CC2)c(OC)c1C,26.8
3,COc1ccc(NC(=O)Nc2cc(C(C)(C)C)on2)cc1OC,> 47.9
4,COc1cc2c(cc1OC)CN(C(=O)c1ccco1)CC2,> 43.1
5,CCOC(=O)Cn1nc2sc3ccccc3n2c(=O)c1=O,> 45.8
6,CNC(=O)c1cc(S(=O)(=O)Nc2ccc3c(c2)OCCO3)ccc1C,> 54.4
7,O=C1c2ccccc2NC(c2ccc(Br)s2)N1O (centres undefined),37.5
8,CC(OC(=O)CC1CCCCC1)C(=O)Nc1ccc(F)cc1 (centres undefined),1.2
9,COc1cc(S(=O)(=O)Nc2ccc3c(c2)C(=O)N(C)C3=O)ccc1NC(C)=O,> 60.5
10,Cc1ccccc1Nc1ccc([N+](=O)[O-])cn1,> 34.4
11,CCCc1nnc(SCC(=O)NC2CCCCC2)n1CCOC,> 51.1
12,COc1cc(/C=C/[N+](=O)[O-])ccc1OC(=O)c1cc2ccccc2oc1=O,5.7
13,CCOc1ccc2[nH]c3c(N4CCC5(CC4)OCCO5)ncnc3c2c1,4
14,CN1CCN(C(=O)/C(=C/c2ccccc2F)NC(=O)c2ccccc2)CC1,> 55.1
15,O=C(Nc1ccccc1)c1cc(S(=O)(=O)Nc2cccnc2)ccc1Cl,> 58.2
16,Cc1nc(SCc2ccccc2)c2oc3ccccc3c2n1,< 0.3
17,C=COCCCNc1ncnc2sc(-c3ccccc3)cc12,1.4
18,C[C@H](NS(=O)(=O)c1ccc(Cl)cc1)C(=O)OCC(=O)N1CCOCC1,55.9
19,O=C(/C=C/c1ccccc1Cl)Nc1cccnc1,27
20,CN(CC(=O)Nc1ccc(F)cc1)CC(=O)NC1CCCCC1,> 48.2
21,O=C(NNC1CC(=O)N(c2ccc(Cl)cc2)C1=O)c1ccco1 (centres undefined),> 50.1
22,Cl.O=C(OCCN1CCCCC1)C1(c2ccccc2)CCCC1,> 50.7
23,COc1ccccc1C(=O)Nc1nc2ccccc2s1,< 0.3
24,O=C(O)c1[nH]c2ccc([N+](=O)[O-])cc2c1-c1ccccc1,> 42.3

row,SMILES,solubility kinetic [µg/mL]
1,COc1ccccc1Nc1nc(-c2cccnc2)cs1,1
2,NCCCNc1nc(N)c([N+](=O)[O-])c(NC2CCCCC2)n1,> 46.4
3,CCOC(=O)c1sc(=NC(=O)c2cccs2)n(C)c1C,< 0.3
4,Nc1cc(=O)n(Cc2ccccc2)c(=O)n1-c1ccc(F)cc1,> 46.7
5,CCOc1ccc(-c2cnc3ccccc3n2)cc1,0.8
6,O=C(NC(=S)N1CCN(c2ccc(O)cc2)CC1)c1cccs1,41.7
7,CC(=O)OCC(=O)Nc1ccc(Br)c(C)c1,> 42.9
8,COC(=O)c1cc(NC(=O)c2ccc(F)cc2)cc(C(=O)OC)c1,4.9
9,Cc1cc(C(C)(C)C)cc(C)c1COC(=O)c1cccnc1,1.7
10,O=C(NNC(=O)c1ccncc1)Nc1cccc([N+](=O)[O-])c1,> 45.2
11,Nc1nc(NCc2ccco2)nc(Nc2ccccc2)c1[N+](=O)[O-],0.4
12,CN(C)c1c(F)cc(C(=O)NCc2ccccc2)cc1F,36
13,O=C1CN(C(=O)c2cccc([N+](=O)[O-])c2)CC(=O)N1,> 39.5
14,COc1ccccc1NC(=O)COC(=O)c1[nH]c(=O)[nH]c(=O)c1N,> 50.1
15,CC(=O)Nc1cc2c3c(c1)CCN3C(=O)CC2,> 34.5
16,O=C(NCc1ccccc1F)c1ccc2ccccc2n1,20.9
17,CC(=O)N(/C=C1\SC(=S)N(c2ccccc2)C1=O)c1ccccc1,10
18,O=C1/C(=C/c2cccnc2)SC(=S)N1c1ccc(O)cc1,0.9
19,CCN(CC(=O)NCc1ccc(F)cc1)C(=O)COc1ccccc1[N+](=O)[O-],> 58.4
20,Cc1ccc(OCc2nc(C#N)c(N3CCCCC3)o2)cc1,4.9
21,COc1ccc(S(=O)(=O)N2CCOCC2)cc1NC(=O)COc1ccc(C)cc1,28.4
22,O=c1[nH]c([O-])c(Cc2ccc3c(c2)OCO3)c(=O)[nH]1.[NH4+],29.7
23,Cl.N[C@@H](CCl)C(=O)O,> 24
24,Cc1ccc(Nc2ccc([N+](=O)[O-])cn2)cc1Cl,< 0.2

row,SMILES,solubility kinetic [µg/mL]
1,Cc1ccccc1NC(=O)CCOc1ccccc1,> 38.3
2,Cc1ccc(C)c(CSCC(=O)NCc2cccs2)c1,41.8
3,O=C(Nc1cccc([N+](=O)[O-])c1)N1CCN(c2ccccc2)CC1,3.6
4,Cc1cc2c(cc1C)C(c1ccccc1OC(C)C)CC(=O)N2 (centres undefined),< 0.7
5,CCN1CCN(C(=O)/C=C/c2ccc(OC)cc2)CC1,> 41.2
6,O=C(O)c1ccc(Nc2nc(-c3cccnc3)cs2)cc1,> 44.6
7,Cc1ccc2c(CN(C)Cc3cccc(F)c3)cc(=O)oc2c1C,2.9
8,COC(=O)c1sc(-c2cccs2)cc1N,7.2
9,COc1ccccc1CNc1ccc2c(c1)CCC2,7.4
10,COc1ccc(CCNS(=O)(=O)c2cn(C)nc2C)cc1,> 46.4
11,O=C(OCC(=O)N1CCCCCC1)c1cccc(Cl)c1,> 44.4
12,N#CCOc1ccccc1/C=C/c1nc2ccccc2c(=O)[nH]1,5
13,O=C(O)CCn1c(SCCOc2ccccc2F)nc2ccccc21,> 54.1
14,O=C(NCCCc1ccccc1)N1CCOCC1,> 37.2
15,CCN(CC)S(=O)(=O)c1cccc(NC2=NCC(C)S2)c1 (centres undefined),> 49.1
16,CCOc1ccc(CC(=O)Nc2cc(=O)n(C)c(=O)n2C)cc1,4.8
17,CCc1nc2sc3ccccc3c(=O)c2c(=O)n1Cc1ccc(OC)cc1,0.8
18,O=C(O)Cc1sc(-c2ccccc2)nc1-c1cccs1,> 45.2
19,CC(=O)c1cccc(NC(=O)CC2CCCC2)c1,> 36.8
20,Cc1ccc(C)c(NC(=S)N2CCCC2)c1,> 35.2
21,Cc1ccc(C)c(NCc2ccccc2CO)c1,> 36.2
22,CCOc1ccc(Nc2cc(C)nc3ccc(C)cc23)cc1,40
23,Cc1cccn2c(Nc3ccccc3)c(-c3ccccn3)nc12,31.2
24,O=c1cc(-c2ccco2)nc(SCc2cccc(Cl)c2)[nH]1,0.6

row,SMILES,solubility kinetic [µg/mL]
1,CCN1CCN(C(=O)/C=C/c2ccc3c(c2)OCO3)CC1,> 43.3
2,N#CCNC1CC(=O)N(c2ccc(F)cc2)C1=O (centres undefined),29.9
3,COc1ccc(NC(=O)COc2ccccc2)cc1NC(=O)c1ccco1,1.2
4,CCc1ccc(C(=O)Nc2nc3ccccc3[nH]2)cc1,0.5
5,O=C(CSc1ccc([N+](=O)[O-])cn1)Nc1ccc(N2CCOCC2)cc1,0.9
6,COC(=O)C(NC(=O)c1ccccc1C(=O)O)c1ccc2ccccc2c1 (centres undefined),> 54.5
7,COc1cc(C(=O)Nc2cccnc2)cc(OC)c1OC,> 43.2
8,S=c1[nH]nc(C2(c3ccccc3)CCCC2)o1,> 36.9
9,Cc1c(C(=O)N2CCC2)oc2c(F)cccc12,30.3
10,CCC(OC(=O)c1nsc(Cl)c1Cl)C(=O)NC(C)(C)CC (centres undefined),> 53
11,CC(C)OC(=O)CC1C(=O)NCCN1C(=O)COc1ccc(C(C)(C)C)cc1 (centres undefined),49.4
12,Cc1ncc([N+](=O)[O-])n1CC(=O)Nc1ccc(Br)cc1,9.9
13,CN(C)c1ccncc1C(=O)Nc1ccc(F)cc1F,> 41.6
14,NC(=O)c1ccccc1OCC(=O)N1CCc2ccccc2C1,> 46.6
15,Cc1nnc(NC(=O)CN2C(=O)NC3(CCCC3)C2=O)s1,> 46.4
16,COc1cc(-n2c(C)nc3cc(C(=O)O)ccc32)cc(OC)c1OC,> 51.4
17,CSc1ncccc1C(=O)OCC(=O)NC12CC3CC(CC(C3)C1)C2,21.8
18,CC1(C2CC(C(F)(F)F)n3nc(C(=O)O)cc3N2)CC1 (centres undefined),> 43.4
19,Clc1cc(-c2ccccc2)nc(-c2ccccc2)n1,< 0.3
20,Nc1cccc(-c2nc3ccc(C(=O)c4ccccc4)cc3[nH]2)c1,20.3
21,OC(CNCC1COc2ccccc2O1)COc1ccccc1F (centres undefined),> 50
22,CCOC(=O)c1nc(NCc2ccccc2)c2ccccc2n1,27.4
23,Cc1ccc(/C=C2/SC(=Nc3ccc(F)cc3)NC2=O)s1,0.8
